Experimental data taken from paper PMC7312527 (International Journal of Molecular Sciences, 2020).

Tests used:
[1] = biological target: AChE from electric eel (Electrophorus electricus, UniProt O42275); assay: biochemical
[2] = biological target: T1, Amyloid β peptide (1–42) (Aβ42) (Homo sapiens, UniProt P05067); assay: Inhibition of self-induced Aβ42 aggregation (thioflavin-T assay); type: biochemical
T1 construct: Amyloid β peptide (1–42) (Aβ42) was purchased from Sigma Aldrich; purchased Sigma Aldrich

[3] = in vitro; type: cell-based; settings: human, human hepatic stellate cells (HSCs), HSCs, 24 h, read-out: hepatotoxicity (MTT; cell viability as percentage of control)
Description: Human hepatic stellate cells (HSCs, Sciencell) were cultured in the Stellate Cell Medium (Sciencell) with 1% Stellate Cell Growth Supplement, 2% fetal bovine serum (FBS), and 1% penicillin/streptomycin solution (Sciencell). Cells were kept in the incubator (37 °C, 5% CO2). At the beginning of the experiment, cells were seeded in the 96-well plates at a density of 5 × 10^3 cells per well and incubated in the incubator for 24 h. After the incubation period, medium was removed and HSCs were exposed to 100 µL of the compound solutions over a range of concentrations (10–0.1 µM) or nothing but culture medium (blank control). Cells were further incubated for 24 h. At the end, medium was removed, cells were washed with PBS, and 50 µL of the MTT solution (0.75 mg/mL) was added to the cells. Plates were kept in the dark for 2 h at 37 °C. Finally, the MTT solution was removed and 100 µL of DMSO was added to each well. Plates with DMSO were kept at room temperature for 10 min. After this time, 5 µL of Sorensen Buffer was added to each well. Plates were swayed and the absorbance was measured at a wavelength of 570 nm by a microplate reader (Synergy H1, BioTek). The cell viability was expressed as a percentage of the control values (blank control).

[4] = tested on: histone H3 phosphorylation (Ser10) in human astrocytes; assay: Global histone H3 phosphorylation (Ser10) colorimetric assay; type: cell-based; settings: for amount of phosphorylated H3Ser10 / phosphorylation of H3Ser10 in comparison to 100% control: 24 h
Description: Cell culture: Human astrocytes (HA, Sciencell, USA) were grown in the Astrocyte Cell Medium (Sciencell) supplemented with 2% fetal bovine serum (Sciencell), 1% Astrocyte Cell Growth Supplement (Sciencell), and 1% penicillin/streptomycin solution (Sciencell). Cells were cultured in the incubator at 37 °C and 5% CO2. To start the experiment, cells were seeded at the density of 1.5 × 10^6 cells/well in the flasks and were kept in the incubator (37 °C, 5% CO2) for 24 h. After the incubation period, the medium was removed. Then, the cells were exposed to compound 3c (1 µM and 0.025 µM) or nothing but control medium for 24 h. Then, cells were collected and histone extracts from them were prepared.
The levels of histone H3 phosphorylation (Ser10) were determined using a Global Histone H3 phosphorylation (Ser10) colorimetric assay kit (Epigentek) according to the manufacturer’s instructions. In the assay, the phosphorylated histone H3 at ser10 is captured in the wells of a 96-well plate coated with an anti-phospho histone H3 antibody. The captured phosphorylated histone H3 (Ser10) is detected with a labeled detection antibody followed by a color development reagent. […]

T1 sequence (P05067 672-713 limits assumed): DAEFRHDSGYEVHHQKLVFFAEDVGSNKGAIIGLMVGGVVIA
AChE from electric eel, sequence (O42275 24-633): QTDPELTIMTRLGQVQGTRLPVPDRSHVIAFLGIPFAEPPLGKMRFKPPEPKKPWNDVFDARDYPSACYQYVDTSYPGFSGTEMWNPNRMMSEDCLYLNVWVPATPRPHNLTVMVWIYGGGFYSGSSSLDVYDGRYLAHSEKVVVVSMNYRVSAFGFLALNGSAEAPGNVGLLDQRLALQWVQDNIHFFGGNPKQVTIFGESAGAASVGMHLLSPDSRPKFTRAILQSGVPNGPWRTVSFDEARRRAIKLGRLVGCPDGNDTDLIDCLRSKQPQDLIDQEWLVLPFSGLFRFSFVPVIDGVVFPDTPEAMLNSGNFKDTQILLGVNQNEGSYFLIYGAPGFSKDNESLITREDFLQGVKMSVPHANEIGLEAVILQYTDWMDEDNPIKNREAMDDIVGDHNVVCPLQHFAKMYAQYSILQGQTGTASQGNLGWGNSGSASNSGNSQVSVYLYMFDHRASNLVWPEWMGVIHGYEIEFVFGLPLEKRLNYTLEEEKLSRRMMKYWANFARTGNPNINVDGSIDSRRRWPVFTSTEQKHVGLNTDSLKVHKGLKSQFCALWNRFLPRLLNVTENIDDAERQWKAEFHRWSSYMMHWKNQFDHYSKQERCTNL

Structure (SMILES): O=C(NCCCCNc1c2c(nc3ccccc13)CCCC2)c1cc(Cl)cc(Cl)c1 [Compound 3c]
- Selectivity for AChE ([1]; IC50 (BuChE)/IC50(AChE)): 4.864
- IC50 ([1]; means ± SD of three independent experiments, read-out: EeAChE IC50 ± SD): 25 ± 3 nM
- Inhibition of Aβ aggregation ([2]; 5 µM): 23%
- inhibition at 5 µM ([2]; 5 µM, read-out: Inhibition of Aβ aggregation): 23.5%
- inhibition at 10 µM ([2]; 10 µM, read-out: Inhibition of Aβ aggregation): 24.3%
- inhibition at 25 µM ([2]; 25 µM, read-out: Inhibition of Aβ aggregation): 25.8%
- inhibition at 50 µM ([2]; 50 µM, read-out: Inhibition of Aβ aggregation): 26.7%
- Inhibition of Aβ aggregation ([2]; 100 µM): 32%
- inhibition at 100 µM ([2]; 100 µM, read-out: Inhibition of Aβ aggregation): 31.8%
- Inhibition of Aβ42 aggregation ([2]; at all concentrations (5–100 µM)): more than 23%
- viability at 24 h, 0.1 µM ([3]; 0.1 µM): 99.9%
- viability at 24 h, 1 µM ([3]; 1 µM): 95.4%
- viability at 24 h, 10 µM ([3]; 10 µM): 87.4%
- amount of phosphorylated H3Ser10 ([4]; 0.025 µM): 28.26 µg/mg
- phosphorylation of H3Ser10 in comparison to 100% control ([4]; 0.025 µM): 105.64%
- DNA damage ([4]; 1 µM and 0.025 µM): not observed
- amount of phosphorylated H3Ser10 ([4]; 1 µM): 29.08 µg/mg
- phosphorylation of H3Ser10 in comparison to 100% control ([4]; 1 µM): 108.69%
